# Laboratory results from US12358902B2, “5-(2,5-bis(4-chloro-2-isopropylphenyl)thiophen-3-yl)-1H-tetrazole for the topical treatment of bacterial infections” (DENOVAMED INC., priority 2017, dated 2025).
# Assays:
# [1] = test system: panel of 125 important Gram positive strains and MDR clinical isolates of MRSA, VRE, and S. epidermidis; experiment: MIC versus panel of 125 strains; assay type: cell-based; settings: panel of 125 strains incl. strains resistant to vancomycin, penicillin, erythromycin and ciprofloxacin
# Procedure: Using a broth microdilution assay according to Clinical Laboratory Standards Institute (CSLI) guidelines, we tested 5-(2,5-bis(4-chloro-2-isopropylphenyl)thiophen-3-yl)-1H-tetrazole (“Test Article” in below table) to establish MICs against a broad range of MDR bacteria and noted substantive activity versus methicillin-resistant Staphylococcus aureus (MRSA), vancomycin-resistant Enterococcus (VRE) and Streptococcus spp. Antimicrobial susceptibility testing was performed by a microdilution broth assay according to CLSI guidelines. The inoculum was prepared from stationary-phase cultures diluted in water. Microtiter plate wells received aliquots of 100 μL of the compound diluted in Mueller-Hinton II cation adjusted media. The final concentration of compound typically ranged from 250 to 0.125 μg/ml in serial two-fold dilutions. In addition to the test compound, growth and sterility controls were included, along with DMSO vehicle control rows. The microtiter plates were inoculated with 5×10^5 bacteria and incubated overnight at 35° C. in a humidified atmosphere. […]
# [2] = test system: mupirocin resistant strains of E. faecalis; experiment: activity against mupirocin resistant strains; assay type: cell-based
# [3] = test system: USA300 MRSA strain; experiment: bactericidal activity; assay type: cell-based
# [4] = test system: MRSA; experiment: cellulitis model, intra-dermal MRSA; assay type: in vivo, SKH1 mice; settings: topical formulation for 7 days
# Procedure: SKH1 mice were injected intra-dermally with MRSA (N=15). 5 mice received neutral control topical formulation for 7 days. 5 mice received a topical formulation containing mupirocin for 7 days. 5 mice received a topical formulation containing 5-(2,5-bis(4-chloro-2-isopropylphenyl)thiophen-3-yl)-1H-tetrazole for 7 days. Lesion area was measured each day. After 7 days, terminal colony forming units (CFUs) were measured to determine microbiological efficacy.
structure (smiles),measurement,setting,value
"CC(C)c1cc(Cl)ccc1-c1cc(-c2nnn[nH]2)c(-c2ccc(Cl)cc2C(C)C)s1 [Test Article, 5-(2,5-bis(4-chloro-2-isopropylphenyl)thiophen-3-yl)-1H-tetrazole]",MIC,[1],0.5 to 1 µg/mL
same,activity,[2],retained activity
same,bactericidal activity,[3],rapidly bactericidal
same,terminal CFU count,[4]; FIG. 2A,significantly reduce
same,lesion area,[4]; FIG. 2B,significantly reduce
